The results in this text go back to US7348363B2, “Method of controlling zoological and aquatic plant growth” (priority 2000, dated 2008).

One assay has as its system Neochloris. The assay is described as follows: Phytoplankton toxicity, Neochloris. In kind it is cell-based. As to the method: (§1) Each 600 ml glass beaker containing 400 ml dinoflagellate culture was allowed to grow under continuous fluorescent light following the exposure treatments. At daily intervals, samples were taken for cell counting and microscopical examination, extraction of chlorophyll pigments with acetone and for direct in-vivo chlorophyll fluorescence determination.
(§2) End-points for quinone toxicity include cell motility, inhibition of cell division, inhibition of chlorophyll synthesis and chloroplate bleaching.
(§3) Assays for other species of phytoplankton including Chlorella sp. and Isochrysis galbana followed the above outlined procedures.

A further assay has as its system Artemia salina. The assay is described as follows: Artemia salina toxicity. Type of assay: in vivo. As to the method: (§4) The effectiveness and toxicity levels of the compounds were evaluated using active plant and animal species. The various compounds were added to the water at controlled rates and amounts.
A further assay concerns T. isochrysis galbana. The assay is described as follows: Phytoplankton assay, Isochrysis galbana. Type of assay: cell-based. As for the experimental part: The dinoflagellate prorocentrum minimum was cultured at the Chesapeake Biological Laboratory culture facility from in-house stocks grown up as a 1 liter culture in sterilized 16 ppt salinity filtered water fortified with f/2 nutrient media. The culture was diluted to 5 liters with filtered estuarine water 16 ppt salinity prior to the experiments. The approximate starting cell density was 2×10^6 cells per ml.
as §1
100 ml of each dinoflagellate culture treatment in triplicate were filtered through a 25 mm GFF filter under gentle vacuum. The filters were folded and placed in polypropylene centrifuge tubes and exactly 4 ml of HPLC grade acetone added. The samples were sonicated with a probe (Virsonic 50) for approximately 2 minutes to disrupt cells after which they are allowed to extract at 4° C. overnight in a refrigerator. After centrifuging for 5 minutes, the supernatant was transferred to a quartz fluorometer cell and the fluorescence recorded using a Hitachi F4500 scanning fluorescence detector. Excitation was fixed at 436 nm with a 10 nm slit and the emission is recorded at 660 nm with a 10 nm slit. The photomultiplier is operated at 700 V. Authentic chlorophyll a and b (Sigman Chemicals) were dissolved in HPLC grade acetone to calibrate the spectrofluorometer. Three point calibrations were performed in triplicate on a daily basis and relative fluorescence response converted into units of ug/l.
In-vivo fluorimetry with the Hitachi F4500 involves suspending the algal cells and transferring an aliquot to a disposable polycarbonate cuvette and recording the emission spectra from 600-720 nm with excitation fixed at 436 nm with a 10 nm slit width.
Direct cell counts were made with a compound binocular microscope and a hemacytometer counting triplicate samples in 80 squares.
as §2, §3

A further assay relates to Zebra mussel larvae. The assay is described as follows: Zebra mussel larvae bioassay. Type of assay: in vivo, Dreissena polymorpha. As for the experimental part: Zebra mussel broodstock were maintained in natural well water with calcium and magnesium adjusted to a hardness level equivalent to approximately 25 mg/l hardness.
(§5) At 20° C., larvae remain in the free-swimming state for 30-40 days prior to settlement. Bioassays using early larval stages of this species are variants on standard oyster embryo bioassays. Assays are conducted at the embryo, trochophore and D-hinge stage.
The assays examined the toxicity of various quinones to the earliest life history stages, namely embryo to trochophore stage (2-17 hours); trochophore stage (2-17 hours); trochophore to D-hinge stage (17-48 hours); and embryo to D-hinge stage (2-48 hours).
Approximately 25 adults from broodstock (held at 10-12° C.) were cleaned of debris and transferred to 1500 ml glass beakers containing approximately 800 ml of culture water. Water temperature was rapidly raised to 30-32° C. by the addition of warm water. Mussels treated this way usually spawn within 30 minutes. If no spawning occurred within this time, a slurry made from ripe gonads homogenized in culture water is added.
A successful spawn yielded >50,000 eggs/female. To check for successful fertilization, zygotes were transferred to a Sedgewick-Rafter cell for counting and examination under a binocular microscope. Fertilized eggs were seen to be actively dividing and reached the 8-cell stage between 2-3 hours following fertilization. A better than 70% fertilization rate is considered indicative of viable experimental material.
Assays were conducted on at least 500 embryos/larvae in each of 4 replicates. A range of 5 test concentrations (in the ppm range) plus controls were used. A density of 10 embryos per ml were used for embryo assays, and for D-hinge larvae 2-larvae/ml were used. The tests were static non-renewal. Any assay lasting 24 hours or longer received food (cultured Neochloris @5×10^4 cells ml-1) at 24 hour intervals.
Following counting and adjustment of densities, embryo assays were started as early as 2 hours following fertilization by inoculating a known number of embryos into the test media. Late stages were held in culture water until inoculation. Survivors were counted using Sedgewick-Rafter cells, with adjustments for control mortality using Abbott's formula. Probit and Dunnett's test are used to obtain the LD50, Lowest Observed Effect Concentration (LOEC) and No Observed Effect Concentration (NOEC) (Toxcalc 5.0).

The next assay concerns Fish eggs. In kind it is in vivo.
Another assay deals with Minnow larvae. Put plainly: Fathead minnow acute assay (fish assay). In kind it is in vivo, Pimephales promelas. As for the experimental part: Fathead minnows (Pimephales promelas) from in-house laboratory cultures were used for these tests. Animals were cultured in natural well water with hardness adjusted to >50 ppm (CaCO3) equivalents. Fish were spawned in a 20 gal spawning tank containing PVC tubing as refuges. Newly hatched larvae were transferred to a holding tank at densities of 50-100/l until use. Brine shrimp nauplii (Artemia) were used as food.
The tests were static renewal. The test durations were 48 hours and 96 hours. The temperature was 20° C.±1° C. Light quality was ambient laboratory illumination. Light intensity was 10-20 E/m^2/sec (50-100 ft-c). The photoperiod was 16 hours of light and 8 hours of dark. The test container was 400 ml. Renewal of test solutions occurred at 48 hours. The age of test organisms was 1-14 days, with a 24 hour age range. There were 10 organisms per container. There were 3 replicates per concentration of individual quinones in the ppm range. There are 5 test concentrations plus controls (initial range-finding tests performed on logarithmic series). All tests were conducted within 5 hours of dissolving the test compound. Animals were fed Artemia nauplii prior to the test and 2 hours prior to the 48 hour test solution renewal. […]
The test objectives are to determine LC50, LOEC and NOEC. […] Data are analyzed using Toxcalc 5.0.

The next assay relates to E. affinis. Put plainly: Copepod assay (Eurytemora affinis). Type of assay: in vivo. As to the method:
Cultures of Eurytemora affinis were continuously maintained in 15 seawater in a 8/16 hours light/dark regime fed every 48 hours on Isochrysis galbana. Toxicity bioassays are conducted on early instar naupliar larvae (chronic mortality/fecundity assay) or adults (acute LC50 assay).
Larvae were collected as follows. Cultures were filtered with a 200 m Nitex filter to separate the adults from earlier stages. Adults were then allowed to spawn for 48-72 hours in order to produce stage 1-3 naupliar larvae to be used for the assay. Assays were conducted on batches of 10 larvae per treatment (in triplicate). At 20° C., assays were continued for 12 days (shorter at higher temperatures). Endpoints were the percentage of F0 generation (present as adults) and total numbers of F1 generation (present as eggs or naupliar larvae). LC50 assays on adult copepods were conducted for 24 or 48 hours with percentage mortality as the end-point. All assays were conducted at 15 salinity on a 8 hour/16 hour light/dark regime.

The subject of assay [1] is Banana snails (Bulimulis alternata). The assay is described as follows: Banana snail bioassay on treated lettuce leaves. In kind it is in vivo. The note with it: for Avoidance of treated leaves: lettuce leaves sprayed with 5, 10 and 20 mg/l aqueous solution. As to the method:
Banana snails (Bulimulis alternata) were obtained from a commercial supplier and were fed lettuce leaves until the start of the bioassay.
Ten snails were placed in covered 1 liter glass beakers, on approximately 50 cm^2 lettuce leaves which had been sprayed with a fine mist of an aqueous solution of 2,3-dimethoxy-5-methyl-1,4-benzoquinone at three concentrations: 5, 10 and 20 mg/l. The treated leaves were allowed to dry before exposure to the snails. 10 snails were placed on approximately 50 cm^2 of untreated lettuce leaf as a control. Treatments and controls were maintained at approximately 20° C. in the dark.
Others climbed up the walls of the beakers away from the leaves. […] In contrast, the control group of snails consumed more than 10% of the leaf surface area after 24 hours and continued to feed and had consumed about 20% of the leaf after 48 hours.

The test system of a further assay is Oyster larvae. Put plainly: Oyster larvae toxicity. In kind it is in vivo. As to the method:
as §4, §5

`CC1=CC(=O)c2c(O)cccc2C1=O` [compound 1, 2-methyl-5-hydroxy-1,4-napthoquinone]: the “Toxicity Data: Toxic at (concentration)” value in the assay with Neochloris is “Toxic at 500 ppm”; in the assay on Artemia salina, “Toxic at 5 ppm”; in the assay with T. isochrysis galbana, “Toxic at 50 ppb”; in the assay with Zebra mussel larvae (Zebra larvae) it was “Toxic at 200 ppb”; in the assay on Minnow larvae, “Toxic at 1 ppm”. In addition, the “Toxicity Data: Kills & hatch prevention @ (concentration)” value in the assay on Fish eggs is on record as “prevention @ 1 ppm”. The “Toxicity Data: time to toxic effect at 5 ppm” value (“Toxicity Data: time” below) in the assay with E. affinis was determined as 5 ppm < 10 min.
Take `O=C1c2ccccc2C(=O)c2c1ccc(O)c2O` [compound 5, 1,2-dihydroxyanthraquinone]: the “Toxicity Data: Toxic at (concentration)” value in the assay on Artemia salina is given as “Toxic at 5 ppm”; with T. isochrysis galbana, “Toxic at 1 ppm”; with E. affinis it was “Toxic at 1 ppm”.
In the case of `COC1=C(OC)C(=O)C(C)=CC1=O` [compound 14, 2,3-methoxy-5-methyl-1,4-benzoquinone], the “Toxicity Data: Toxic at (concentration)” value in the assay on T. isochrysis galbana was “Toxic at 5 ppm”. The “Avoidance of treated leaves” value in assay [1] (after 48 hours) was “avoidance behavior was again observed”; in assay [1] (all treatments, 24 hours) it was “significant avoidance relative to control”. In addition, the Feeding activity result in assay [1] (several snails of the treatment group, leaves completely intact) was “no feeding activity at all”.
`O=C1c2ccccc2Cc2ccccc21` [compound 4, Anthrone]: the “Toxicity Data: Toxic at (concentration)” value in the assay on T. isochrysis galbana is on record as “Toxic at 2 ppm”.
On to `O=C1c2ccccc2C(=O)c2ccccc21` [compound 11, anthraquinone], for which the “Toxicity Data: time” value with E. affinis turned out to be 5 ppm < 4 hours.
Consider `CC1=CC(=O)C=CC1=O` [compound 13, methyl-1,4-benzoquinone (toluquinone)], for which, in the assay on T. isochrysis galbana, the “Toxicity Data: Toxic at (concentration)” value is “Toxic at 500 ppb”.
Regarding `O=C1C=CC(=O)C=C1` [compound 12, 1,4-benzoquinone], in the assay with T. isochrysis galbana, the “Toxicity Data: Toxic at (concentration)” value is given as “Toxic at 500 ppb”. For the same compound, in the assay on Fish eggs, the “Toxicity Data: Control hatch at (concentration)” value is “at 1 ppm”.
Consider `CC1=CC(=O)c2ccccc2C1=O` [compound 2, 2-methyl-1,4-naphthalenedione (Vitamin K3)], for which the “Toxicity Data: Toxic at (concentration)” value in the assay with Artemia salina is recorded as “Toxic at 5 ppm”; in the assay on T. isochrysis galbana, “Toxic at 500 ppb”; in the assay with Zebra mussel larvae (Zebra mussel larvae), “Toxic at 500 ppm”. Further, the “Toxicity Data: Kills & hatch prevention @ (concentration)” value with Fish eggs is listed as “prevention @ 1 ppm”. For the same compound, the “Toxicity Data: toxic concentration” value with Oyster larvae came to 1 ppm. In addition, the “Toxicity Data: time” value in the assay on E. affinis amounted to 5 ppm < 15 min.
As to `O=C1C=CC(=O)c2ccccc21` [compound 10, 1,4-naphthalenedione], in the assay on T. isochrysis galbana, the “Toxicity Data: Toxic at (concentration)” value is given as “Toxic at 1 ppm”. Besides, the “Toxicity Data: toxic concentration” value in the assay with Oyster larvae is “Toxic at 5 ppm”. Moreover, the “Toxicity Data: time” value in the assay with E. affinis is on record as 5 ppm < 10 min.
On to `Cc1cc(O)c2c(c1)C(=O)c1cccc(O)c1C2=O` [compound 6, 3-methyl-1,8-dihydroxyanthraquinone], for which the “Toxicity Data: Toxic at (concentration)” value in the assay on T. isochrysis galbana and in the assay on Zebra mussel larvae (Zebra mussel larvae) was “Toxic at 1 ppm” each time.
With `O=C(O)c1ccc2c(c1)C(=O)c1ccccc1C2=O` [compound 7, anthraquinone-2-carboxylic acid], in the assay on T. isochrysis galbana, the “Toxicity Data: Toxic at (concentration)” value was “Toxic at 1 ppm”. In the assay on E. affinis, the “Toxicity Data: time” value was 5 ppm < 5 hours.
For `O=C1c2ccccc2C(=O)c2c(Cl)cccc21` [compound 8, 1-chloroanthraquinone], the “Toxicity Data: Toxic at (concentration)” value with Neochloris and in the assay on T. isochrysis galbana was “Toxic at 500 ppb” throughout. Besides, the “Toxicity Data: time” value with E. affinis is 5 ppm < 5 hours.
`CC1(S(=O)(=O)[O-])CC(=O)c2ccccc2C1=O.[Na+]` (stereo not shown) [compound 3, 2-methyl-2-sodium metabisulfite-1,4-naphthalenedione]: the “Toxicity Data: Toxic at (concentration)” value in the assay on Artemia salina is recorded as “Toxic at 5 ppm”; with T. isochrysis galbana it was “Toxic at 500 ppb”; in the assay with Zebra mussel larvae (Zebra mussel larvae), “Toxic at 1 ppm”. In addition, the “Toxicity Data: Kills & hatch prevention @ (concentration)” value with Fish eggs is “prevention @ 1 ppm”. In addition, in the assay with Oyster larvae, the “Toxicity Data: toxic concentration” value is listed as 500 ppb. Also, the “Toxicity Data: time” value with E. affinis is on record as 5 ppm < 15 min.
Take `Cc1ccc2c(c1)C(=O)c1ccccc1C2=O` [compound 9, 2-methyl-anthraquinone]: the “Toxicity Data: Toxic at (concentration)” value is listed as “Toxic 1 ppm” with Neochloris, “Toxic at 5 ppm” with Artemia salina, “Toxic at 500 ppb” in the assay with T. isochrysis galbana and “Toxic at 200 ppm” in the assay on Zebra mussel larvae (Zebra mussel larvae). Further, the “Toxicity Data: time” value in the assay on E. affinis is recorded as 5 ppm < 45 min.
